Source: patent publication US10961189B2, “Spiro-lactam NMDA receptor modulators and uses thereof” (Aptinyx Inc., priority 2016, dated 2021)
Read-outs that look alike come from different tables or passages of the source.

Columns and labels:
rats = assay: positive emotional learning (PEL) test, 50-kHz ultrasonic vocalizations; assay type: in vivo, rat; settings: PO, one hour after administration
Protocol: Experiments were conducted as described in Burgdorf et al., “The effect of selective breeding for differential rates of 50-kHz ultrasonic vocalizations on emotional behavior in rats,” Devel. Psychobiol., 51:34-46 (2009). Rat 50-kHz ultrasonic vocalization (hedonic USVs) is a validated model for the study of positive affective state and is best elicited by rough-and-tumble play.
The PEL assay measures the acquisition of positive (hedonic) 50-kHz ultrasonic vocalizations (USVs) to a social stimulus, heterospecific rough and tumble play stimulation. Heterospecific rough-and-tumble play stimulation was administered by the experimenter's right hand. One hour after administration of test compound or vehicle negative control (0.5% sodium carboxymethyl cellulose in […] sterile saline), animals received 3 min of heterospecific rough-and-tumble play that consisted of alternating 15 sec blocks of heterospecific play and 15 sec of no-stimulation. High frequency ultrasonic vocalizations (USVs) were recorded and analyzed by sonogram with Avasoft SASlab Pro (Germany) as previously described by Burgdorf et al., “Positive emotional learning is regulated in the medial prefrontal cortex by GluN2B-containing NMDA receptors,” Neuroscience, 192:515-523 (2011). Frequency modulated 50-kHz USVs that occurred during each of the no-stimulation periods were quantified to measure PEL. Animals were not habituated to play stimulation before testing. Positive emotional learning was measured during the conditioned stimulus (CS) trials preceding the tickle unconditioned stimulus (UCS) trials. Animals received 15 second trials consisting of 6 CS and 6 UCS trials each (3 min total).
The table below summarizes the findings. As each experiment includes its own vehicle group, an example (typical) vehicle score is shown. Max effect (mean number of 50 kHz USVs per 15 seconds) is reported as ^: <6.0; *: 6-10.9; **: 11-16.9; ***: 17-22.

NMDAR2A = target: T1, NMDAR2A (Homo sapiens, UniProt Q12879); assay: [3H]MK-801 binding in NMDAR expressing HEK cell membranes (facilitation of NMDAR activation); assay type: biochemical; settings: 50 μM glutamate; for Emax: 0.25 h, read-out: A: % maximal [3H]MK-801 binding relative to 1 mM glycine; for EC50: read-out: B: log EC50 (converted)
T1 construct: expressed in transfected cells; host or cells: HEK cells (membrane extract)
Procedure, shortened: (§1)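 HEK membranes (300 μg) expressing the NMDAR subunit were preincubated 15 min at 25 °C with 50 μM glutamate and compound ([…]−1×10^−7M), then with 0.3 μCi [3H]MK-801 for 15 min under nonequilibrium conditions and filtered. Baseline-subtracted DPM was expressed as % of 1 mM glycine, and EC50 and % maximal binding came from three-parameter curve fits.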

NMDAR2B = target: T2, NMDAR2B (Homo sapiens, UniProt Q13224); assay: as above; assay type: biochemical; settings: 50 μM glutamate; for EC50: read-out: B: log EC50 (converted); for Emax: 0.25 h, read-out: A: % maximal [3H]MK-801 binding relative to 1 mM glycine
T2 construct: expressed in transfected cells; host or cells: HEK cells (membrane extract)
Procedure, shortened: as §1

IV pharmacokinetics = assay type: in vivo, Sprague Dawley rats; settings: rat, normal saline (* in 5% NMP, 5% Solutol HS, 90% normal saline); for Vd: read-out: Vss
Text: The table below summarizes the results of the IV pharmacokinetics.

[1] = oral pharmacokinetics (plasma, brain, CSF); assay type: in vivo, Sprague Dawley rats; settings: rat, per os 10 mg/kg; for AUC(0-t) / bioavailability / Tmax / Cmax: Sprague-Dawley, plasma, po; for Tmax: normal saline (* in 5% NMP, 5% Solutol HS, 90% normal saline), read-out: Tmax; for Cmax: read-out: Cmax
Protocol: In another experiment, Sprague Dawley rats were dosed per os using a normal saline formulation containing 10 mg/kg of the compounds identified in the table below (except for the compounds marked with an asterisk (“*”) that were delivered in 5% NMP, 5% Solutol® HS and 90% normal saline formulation). Plasma, brain, and CSF samples were analyzed at various time points over a 24 hour period.

[2] = Sprague-Dawley, in vivo, iv, 2 mg/kg
[3] = Sprague-Dawley, in vivo, iv, 2 mg/kg, read-out: C0
[4] = Sprague-Dawley, in vivo, intravenous 2 mg/kg

T1 sequence (Q12879 23-1464, species assumed, other chains not shown): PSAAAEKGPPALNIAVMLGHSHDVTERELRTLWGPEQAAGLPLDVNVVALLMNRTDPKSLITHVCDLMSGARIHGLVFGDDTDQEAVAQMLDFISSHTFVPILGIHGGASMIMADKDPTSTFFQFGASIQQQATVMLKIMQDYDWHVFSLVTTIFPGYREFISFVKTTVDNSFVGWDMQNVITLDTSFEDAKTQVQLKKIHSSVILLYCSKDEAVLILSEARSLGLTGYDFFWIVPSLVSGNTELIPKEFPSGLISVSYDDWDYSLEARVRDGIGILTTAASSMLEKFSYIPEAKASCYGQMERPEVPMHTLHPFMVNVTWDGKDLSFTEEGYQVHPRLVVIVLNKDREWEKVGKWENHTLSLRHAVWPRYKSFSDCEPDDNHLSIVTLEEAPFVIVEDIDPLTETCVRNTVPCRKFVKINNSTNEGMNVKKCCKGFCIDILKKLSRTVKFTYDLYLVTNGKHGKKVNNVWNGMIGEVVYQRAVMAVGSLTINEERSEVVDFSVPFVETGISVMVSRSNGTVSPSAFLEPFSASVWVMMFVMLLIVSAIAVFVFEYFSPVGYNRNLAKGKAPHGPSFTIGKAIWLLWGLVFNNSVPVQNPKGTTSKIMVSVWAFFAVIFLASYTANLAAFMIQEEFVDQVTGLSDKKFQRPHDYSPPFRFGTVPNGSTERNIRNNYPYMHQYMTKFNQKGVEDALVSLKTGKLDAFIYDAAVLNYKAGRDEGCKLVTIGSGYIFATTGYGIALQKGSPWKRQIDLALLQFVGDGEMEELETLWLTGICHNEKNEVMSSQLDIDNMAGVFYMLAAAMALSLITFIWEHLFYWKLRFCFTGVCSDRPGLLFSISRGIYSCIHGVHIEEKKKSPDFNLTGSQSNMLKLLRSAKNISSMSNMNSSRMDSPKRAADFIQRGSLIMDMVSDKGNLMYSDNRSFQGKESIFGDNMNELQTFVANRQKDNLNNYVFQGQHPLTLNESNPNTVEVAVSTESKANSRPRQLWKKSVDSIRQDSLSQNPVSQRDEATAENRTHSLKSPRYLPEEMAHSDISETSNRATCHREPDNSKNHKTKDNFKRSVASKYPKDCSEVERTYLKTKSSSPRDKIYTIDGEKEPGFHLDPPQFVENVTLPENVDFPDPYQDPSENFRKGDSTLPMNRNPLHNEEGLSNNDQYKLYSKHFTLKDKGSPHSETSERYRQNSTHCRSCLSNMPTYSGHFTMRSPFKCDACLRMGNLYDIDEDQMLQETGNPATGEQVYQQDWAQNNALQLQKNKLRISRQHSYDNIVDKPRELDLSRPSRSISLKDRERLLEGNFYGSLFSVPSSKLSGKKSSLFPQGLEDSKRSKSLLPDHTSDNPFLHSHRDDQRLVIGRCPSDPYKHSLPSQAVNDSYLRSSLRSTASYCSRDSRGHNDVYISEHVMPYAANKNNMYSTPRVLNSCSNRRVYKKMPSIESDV
T2 sequence (Q13224 27-1484, species assumed, other chains not shown): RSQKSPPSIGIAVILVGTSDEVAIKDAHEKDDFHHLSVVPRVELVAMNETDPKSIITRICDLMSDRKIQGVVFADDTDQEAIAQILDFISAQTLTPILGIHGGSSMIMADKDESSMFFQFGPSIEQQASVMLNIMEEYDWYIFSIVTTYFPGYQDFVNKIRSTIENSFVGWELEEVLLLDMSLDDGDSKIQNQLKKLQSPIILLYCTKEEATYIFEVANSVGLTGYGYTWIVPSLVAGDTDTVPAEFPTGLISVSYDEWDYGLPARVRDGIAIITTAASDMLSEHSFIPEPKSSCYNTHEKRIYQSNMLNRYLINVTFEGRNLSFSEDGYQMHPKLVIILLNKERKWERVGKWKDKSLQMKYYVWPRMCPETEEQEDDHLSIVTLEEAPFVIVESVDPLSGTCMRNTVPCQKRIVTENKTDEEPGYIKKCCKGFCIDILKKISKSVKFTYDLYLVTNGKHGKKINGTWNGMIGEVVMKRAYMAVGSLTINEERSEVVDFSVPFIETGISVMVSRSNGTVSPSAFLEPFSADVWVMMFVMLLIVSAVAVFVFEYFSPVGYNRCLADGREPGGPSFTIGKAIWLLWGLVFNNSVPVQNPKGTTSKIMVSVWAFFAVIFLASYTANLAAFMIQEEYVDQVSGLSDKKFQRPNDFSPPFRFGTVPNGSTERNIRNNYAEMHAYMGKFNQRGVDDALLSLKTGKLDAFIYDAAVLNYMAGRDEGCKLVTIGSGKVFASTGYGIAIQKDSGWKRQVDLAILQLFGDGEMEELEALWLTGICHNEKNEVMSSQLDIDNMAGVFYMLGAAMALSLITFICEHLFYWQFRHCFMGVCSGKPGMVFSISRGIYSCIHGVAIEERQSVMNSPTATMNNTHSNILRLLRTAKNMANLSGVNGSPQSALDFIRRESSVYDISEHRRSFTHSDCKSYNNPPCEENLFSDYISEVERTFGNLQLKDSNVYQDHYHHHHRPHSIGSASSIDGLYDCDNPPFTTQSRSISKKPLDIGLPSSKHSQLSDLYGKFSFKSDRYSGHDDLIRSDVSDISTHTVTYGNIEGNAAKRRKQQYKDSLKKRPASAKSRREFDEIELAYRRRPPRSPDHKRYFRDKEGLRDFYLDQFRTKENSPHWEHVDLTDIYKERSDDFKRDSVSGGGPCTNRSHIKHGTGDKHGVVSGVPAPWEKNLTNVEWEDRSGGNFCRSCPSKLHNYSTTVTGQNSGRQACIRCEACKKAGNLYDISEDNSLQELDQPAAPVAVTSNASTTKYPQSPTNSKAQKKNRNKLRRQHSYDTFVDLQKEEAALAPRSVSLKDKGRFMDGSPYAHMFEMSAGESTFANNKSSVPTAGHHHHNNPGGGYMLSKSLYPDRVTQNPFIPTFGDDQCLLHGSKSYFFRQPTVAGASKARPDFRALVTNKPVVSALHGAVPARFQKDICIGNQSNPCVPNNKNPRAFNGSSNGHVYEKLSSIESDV

Compound | Max Effect (mean number of 50 kHz USVs per 15 seconds) (rats; dose .001-1 mg/kg) | Emax (NMDAR2A) | EC50 (NMDAR2B) | Emax (NMDAR2B) | AUC(0-t) (IV pharmacokinetics; [2]) | half-life (IV pharmacokinetics; [2]) | C0 (IV pharmacokinetics; [3]) | Vd (IV pharmacokinetics; [2]) | CI (IV pharmacokinetics; intravenous 2 mg/kg) | AUC(0-t) ([1]; 10 mg/kg) | bioavailability ([1]; 10 mg/kg) | Tmax ([1]; 10 mg/kg) | Cmax ([1]; 10 mg/kg) | CSF Cmax [1] | Brain Cmax [1] | EC50 (NMDAR2A) | also measured
CC1CCC2(CC1)CNC2=O (racemic) [Compound AD, 7-methyl-2-azaspiro[3.5]nonan-1-one] | *** (***: 17-22) | 0% | ≥ 1 nM | < 100% | 1360 ng·h/mL | 47.4 min | 2060 ng/mL | 0.97 L/kg | 24.57 mL/min/kg | 4580 ng·h/mL | 67% | 25.2 min | 2030 ng/mL | 1009.2 ng/mL | 1832.2 ng/mL | – | –
O=C1NCC12CCC(OCc1ccccc1)CC2 (single isomer, unassigned) [AI, 7-(benzyloxy)-2-azaspiro[3.5]nonan-1-one] | ** (**: 11-16.9) | < 100% | < 1 nM | < 100% | 1260 ng·h/mL | 82.2 min | 4330 ng/mL | 0.75 L/kg | 26.19 mL/min/kg | 5900 ng·h/mL | 94% | 30 min | 3970 ng/mL | 269.17 ng/mL | 1087.9 ng/mL | < 1 nM | –
C[C@@H](O)[C@H](NC1CCC2(CC1)CNC2=O)C(N)=O (single isomer, unassigned) [AP] | – | < 100% | < 1 nM | < 100% | – | – | – | – | – | 2050 ng·h/mL | 15% | 120 min | 625 ng/mL | 80.46 ng/mL | 0 ng/mL | < 1 nM | Max Effect (mean number of 50 kHz USVs per 15 seconds) (rats; dose .1 mg/kg): ** (**: 11-16.9); AUClast (IV pharmacokinetics; intravenous 2 mg/kg, 2 mg/kg): 2941 ng·h/mL; C0 (IV pharmacokinetics; intravenous 2 mg/kg, 2 mg/kg): 6420.4 ng/mL; CI (IV pharmacokinetics; intravenous 2 mg/kg, 2 mg/kg): 11.21 mL/min/kg; T1/2 (IV pharmacokinetics; intravenous 2 mg/kg, 2 mg/kg): 166 min; Vss (IV pharmacokinetics; intravenous 2 mg/kg, 2 mg/kg): 0.92 L/kg
COc1ccc(CN2CC3(CCC(O)CC3)C2=O)cc1 (stereo not drawn) [AG] | ** (**: 11-16.9) | < 100% | < 1 nM | < 100% | – | – | – | – | 51.36 mL/min/kg | – | – | – | – | 217.3 ng/mL | 307.49 ng/mL | ≥ 1 nM | AUC(0-t) (IV pharmacokinetics; [4]): 650 ng·h/mL; half-life (IV pharmacokinetics; [4]): 24 min; C0 (IV pharmacokinetics; Sprague-Dawley, in vivo, intravenous 2 mg/kg, read-out: C0): 2650 ng/mL; Vd (IV pharmacokinetics; [4]): 0.7 L/kg; bioavailability [1]: 41%; Tmax [1]: 15 min; AUC(0-t) [1]: 1330 ng·h/mL; Cmax [1]: 1930 ng/mL
O=C1NCC12CCC(O)CC2 (stereo not drawn) [AL, 7-hydroxy-2-azaspiro[3.5]nonan-1-one] | ** (**: 11-16.9) | – | < 1 nM | – | 6220 ng·h/mL | 224 min | 3990 ng/mL | 0.83 L/kg | 5.4 mL/min/kg | 19300 ng·h/mL | 97% | 60 min | 9480 ng/mL | 7532 ng/mL | 3672 ng/mL | – | A: % maximal [3H]MK-801 binding relative to 1 mM glycine (NMDAR2A): − (−=0); A: % maximal [3H]MK-801 binding relative to 1 mM glycine (NMDAR2B): + (<100%=+)
